From ChEMBL document CHEMBL2074437, “Expression and transport properties of the human ileal and renal sodium-dependent bile acid transporter” (Am J Physiol, 1998)

Legend:
Format in all cases: functional, cell-based
[1] = target: T1, Ileal sodium/bile acid cotransporter (Homo sapiens, UniProt Q12908); assay: TP_TRANSPORTER: inhibition of Taurocholate uptake in ASBT-expressing COS cells
T1 sequence (Q12908 whole entry): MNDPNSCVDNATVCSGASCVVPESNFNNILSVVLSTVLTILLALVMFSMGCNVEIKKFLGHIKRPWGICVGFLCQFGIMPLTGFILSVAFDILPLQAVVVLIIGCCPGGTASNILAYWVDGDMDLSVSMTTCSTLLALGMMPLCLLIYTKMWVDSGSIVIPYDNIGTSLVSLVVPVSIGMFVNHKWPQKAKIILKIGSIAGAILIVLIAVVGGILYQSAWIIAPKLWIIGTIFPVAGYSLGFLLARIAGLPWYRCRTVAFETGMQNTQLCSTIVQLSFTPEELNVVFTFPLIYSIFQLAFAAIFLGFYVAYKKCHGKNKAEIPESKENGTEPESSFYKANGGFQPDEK

[2] = substrate: C[C@H](CCC(=O)NCC(=O)O)[C@H]1CC[C@H]2[C@@H]3CC[C@@H]4C[C@H](O)CC[C@]4(C)[C@H]3C[C@H](O)[C@]12C; assay: (§1) TP_TRANSPORTER: uptake in ASBT-expressing COS cells
[3] = substrate: C[C@H](CCC(=O)NCC(=O)O)[C@H]1CC[C@H]2[C@@H]3[C@@H](O)C[C@@H]4C[C@H](O)CC[C@]4(C)[C@H]3CC[C@]12C; assay: as §1
[4] = substrate: C[C@H](CCC(=O)NCC(=O)O)[C@H]1CC[C@H]2[C@@H]3[C@H](O)C[C@@H]4C[C@H](O)CC[C@]4(C)[C@H]3CC[C@]12C; assay: as §1

Molecule: C[C@H](CCC(=O)NCCS(=O)(=O)O)[C@H]1CC[C@H]2[C@@H]3[C@@H](O)C[C@@H]4C[C@H](O)CC[C@]4(C)[C@H]3CC[C@]12C [TAURURSODIOL]
- Ki [1]: 28 µM

Molecule: O=C1OC(c2ccc(O)c(S(=O)(=O)O)c2)(c2ccc(O)c(S(=O)(=O)O)c2)c2c(Br)c(Br)c(Br)c(Br)c21 [SULFOBROMOPHTHALEIN SODIUM]
- Ki [1]: 144 µM

Molecule: C[C@H](CCC(=O)NCCS(=O)(=O)O)[C@H]1CC[C@H]2[C@@H]3CC[C@@H]4C[C@H](O)CC[C@]4(C)[C@H]3C[C@H](O)[C@]12C [TAURODEOXYCHOLIC ACID]
- Ki [1]: 17.2 µM

Molecule: C[C@H](CCC(=O)O)[C@H]1CC[C@H]2[C@@H]3[C@@H](O)C[C@@H]4C[C@H](O)CC[C@]4(C)[C@H]3CC[C@]12C [URSODIOL]
- Ki [1]: 75 µM

Molecule: C[C@H](CCC(=O)O)[C@H]1CC[C@H]2[C@@H]3CC[C@@H]4C[C@H](O)CC[C@]4(C)[C@H]3C[C@H](O)[C@]12C [DEOXYCHOLIC ACID]
- Ki [1]: 6.3 µM
- Ki ([1]; cos): 6.3 µM

Molecule: C[C@H](CCC(=O)NCCS(=O)(=O)O)[C@H]1CC[C@H]2[C@@H]3[C@H](O)C[C@@H]4C[C@H](O)CC[C@]4(C)[C@H]3CC[C@]12C [TAUROCHENODEOXYCHOLATE]
- Ki [1]: 6.1 µM

Molecule: C[C@H](CCC(=O)O)[C@H]1CC[C@H]2[C@@H]3[C@H](O)C[C@@H]4C[C@H](O)CC[C@]4(C)[C@H]3CC[C@]12C [CHENODIOL]
- Ki [1]: 3.3 µM

B1: Ileal sodium/bile acid cotransporter (Homo sapiens) (protein)
chain: MNDPNSCVDNATVCSGASCVVPESNFNNILSVVLSTVLTILLALVMFSMGCNVEIKKFLGHIKRPWGICVGFLCQFGIMPLTGFILSVAFDILPLQAVVVLIIGCCPGGTASNILAYWVDGDMDLSVSMTTCSTLLALGMMPLCLLIYTKMWVDSGSIVIPYDNIGTSLVSLVVPVSIGMFVNHKWPQKAKIILKIGSIAGAILIVLIAVVGGILYQSAWIIAPKLWIIGTIFPVAGYSLGFLLARIAGLPWYRCRTVAFETGMQNTQLCSTIVQLSFTPEELNVVFTFPLIYSIFQLAFAAIFLGFYVAYKKCHGKNKAEIPESKENGTEPESSFYKANGGFQPDEK
- Km [2]: 2 µM
- Km [3]: 4.1 µM
- Km [4]: 5.7 µM
